Patent US6620936B2, “9-aminoacridine derivatives and process for the preparation thereof” (Samjin Pharmaceutical Co., Ltd., priority 1998, dated 2003)
≈ marks a conversion by molar mass, not a printed value.

How the values were obtained:
[1] = tested on: A549 (human non-small lung cell); test: In vitro antitumor effect against human tumor cell lines, SRB assay; type: cell-based; settings: 48 hours, A549 cells
Procedure: (§1) In vitro antitumor effect against human tumor cell lines.
A. Tumor cell lines : A549 (human non-small lung cell)
(§2) a. Human solid tumor cell lines, A549(non-small lung cell), SKMEL-2(melanoma), HCT-15(colon), SKOV-3(ovarian) and XF-498(CNS) were cultured in 5% CO2, incubators using the RPMI 1640 media containing 10% FBS at 37° C., while with transfer-culturing successively once or twice per week. Cell cultures were dissolved in a solution of 0.25% trysin and 3 mmol CDTA PBS(−) to separate the cells sticked on the culture media.
(§3) b. 5×10^3˜2×10^4 cells were added into each well of 96-well plate and cultured in 5% CO2, incubator at 37° C. for 24 hours.
(§4) c. Each sample drug was dissolved in a little DMSO and diluted with the used medium to a prescribed concentration for experiment, while the final concentration of DMSO was adjusted below 0.5%.
(§5) d. Medium of each well cultured for 24 hours as above b. was removed by aspiration. Each 200 μl of drug samples prepared in c. was added into each well and tine wells were cultured for 48 hours. Tz (time zero) plates were collected at the point of time drugs were added.
(§6) e. According to the SRB assay method, cell fixing with TCA, staining with 0.4% SRB solution, washing with 1% acetic acid and elution of dye with 10 mmol Tris solution were carried out on Tz plates and culture-ended plates, and then, OD values were measured at 520 nm.
(§7) a. Time zero (Tz) value was determined with measuring the SRB protein value at the point of time drugs were added.
(§8) b. Control value (C) was determined with the OD value of an well untreated with drug.
(§9) c. Drug-treated test value (T) was determined with the OD value of drug-treated well.
(§10) d. Effects of drugs were estimated with growth stimulation, net growth inhibition and net killing calculated from Tz, C and T values.
(§11) e. If T≧Tz, cellular response function was calculated by 100×(T−Tz)/(C−Tz), and, if T≦Tz, by 100×(T−Tz)/Tz.

[2] = tested on: SKOV-3 (human ovarian); test: as above; type: cell-based; settings: 48 hours, SK-OV-3 cells
Procedure: as §1, §2, §3, §4, §5, §6, §7, §8, §9, §10, §11

[3] = tested on: HCT-15 (human colon); test: as above; type: cell-based; settings: 48 hours, HCT 15 cells
Procedure: as §1, §2, §3, §4, §5, §6, §7, §8, §9, §10, §11

[4] = tested on: XF-498 (human CNS); test: as above; type: cell-based; settings: 48 hours, XF-498 cells
Procedure: as §1, §2, §3, §4, §5, §6, §7, §8, §9, §10, §11

[5] = tested on: SKMEL-2 (human melanoma); test: as above; type: cell-based; settings: 48 hours, SK-MEL-2 cells
Procedure: as §1, §2, §3, §4, §5, §6, §7, §8, §9, §10, §11

[6] = tested on: P388 (mouse lymphoid neoplasma cell); test: In vitro antitumor effects against animal leukemia cells, dye exclusion assay; type: cell-based; settings: 48 hours, trypan blue dye exclusion, read-out: P388, concentration showing 50% cell growth inhibition (IC50)
Procedure: In vitro antitumor effects against animal leukemia cells.
Tumor cell lines: P388 (mouse lymphoid neoplasma cell)
B. Method: Dye Exclusion Assay.
1) The concentration of P388 cells being cultured in RPMI 1640 media containing 10% FBS was adjusted to 1×10^6 cells/ml.
2) Each sample drug of a concentration diluted in the ratio of log dose was added into cell culture media and cultured at 37° C. for 48 hours in […] incubator, and then viable cell number was measured by dye exclusion test using trypan blue.

[7] = target: Topoisomerase II; test: Inhibition effects against the Topoisomerase II activities (DNA relaxation assay, DNA cleavage assay); type: biochemical; settings: supercoiled pBR322 DNA substrate, 30 minutes at 37° C.
Procedure: Inhibition effects against the Topoisomerase II activities
The present compounds were tested for inhibition of Topoisomerase II activity by means of the relaxation assay using supercoiled pBR322 DNA as the substrate. Topo II and a sample inhibitor were added to a reaction system (50 mmol Tris-HCl, pH 7.5, 50 mmol KCl, 20 mmol MgCl2, 0.5 mmol EDTA, 2 mmol ATP, 60 μg/ml BSA) containing supercoiled pBR322 DNA and reacted for 30 minutes at 37° C. Then, a quarter by volume of Stop buffer (5% SDS, 50 mmol EDTA, 30% glycerol, 0.1 mg/ml xylene cyanol, 0.1 mg/ml BPB) was added to the reaction system to stop the reaction. The resulting product went through electrophoresis on 0.7% agarose gel and was stained by ethidium bromide solution. Mobility of DNA was measured under ultraviolet rays.
Topo II and a sample inhibitor were added to cleavage buffer (30 mmol Tris-HCl, pH 7.5, 60 mmol KCl, 10 mmol MgCl2, 15 mmol β-mercaptoethanol, 30 μg /ml BSA) containing supercoiled pBR322 DNA and allowed to react for 30 minutes at 37° C. Then, […] by 1% was added to the reaction system to stop the reaction. Then, proteinase K was added thereto up to the concentration of 50 μg/ml and allowed to react for 30 minutes at 56° C. The reaction product was treated with phenol/chloroform to purify DNA, and the obtained DNA was loaded on agarose gel electrophoresis, transferred to nitrocellulose membrane and hybridized with probe DNA labelled with radioisotope. Then, the nitrocellulose membrane was covered with an X-ray film and exposed to be sensitized and developed, whereby the degree of cleavage of DNA was measured.

[8] = Acute toxicity test (LD50), Litchfield-Wilcoxon method; settings: mouse, in vivo, ip; male ICR mice, observed 14 days
Procedure: Acute Toxicity Test (LD50):
a) Method: Litchfield-Wilcoxon Method.
6-week-old ICR mice(male 30±2.0 g) were fed freely with solid feed and water at room temperature, 23±1° C. and at humidity 60±5%. Sample drugs were injected into the abdominal cavities of mice. Each group comprised 6 mice. Observed during 14 days, external appearances and life or death thereof were recorded, and also, visible lesions were observed from dead mice by dissection. LD50 value was calculated by Litchfield-wilcoxon method.

| SMILES | IC50 (μg/ml), inhibition of Topoisomerase II activity [7] [µg/mL] | ED50 A 549 [1] [µg/mL] | ED50 SK-OV-3 [2] [µg/mL] | ED50 HCT 15 [3] [µg/mL] | ED50 XF-498 [4] [µg/mL] | ED50 SK-MEL-2 [5] [µg/mL] | IC50 [6] [µg/mL] | LD50 at 14 days [8] [mg/kg] |
| --- | --- | --- | --- | --- | --- | --- | --- | --- |
| N.N.[Cl][Pt][Cl] [Cisplatin, reference compound] | – | 0.81 | 0.71 | 3.03 | 0.77 | 0.71 | – | – |
| Nc1cc(COC(=O)Nc2ccccc2)cc(Nc2c3ccccc3nc3ccccc23)c1 [Example 1, [3-(acridin-9-yl)amino-5-amino]benzyl N-phenylcarbamate] | 1 | 0.96 (≈ 2.21 µM) | 1.15 (≈ 2.65 µM) | 0.57 (≈ 1.31 µM) | 0.44 (≈ 1.01 µM) | 0.49 (≈ 1.13 µM) | 0.9 (≈ 2.07 µM) | – |
| COc1cc(NC(=O)OCc2cc(N)cc(Nc3c4ccccc4nc4ccccc34)c2)cc(OC)c1OC [Example 4, [3-(acridin-9-yl)amino-5-amino]benzyl N-(3,4,5-trimethoxyphenyl) carbamate] | 5 | 0.19 (≈ 0.362 µM) | 0.19 (≈ 0.362 µM) | 0.24 (≈ 0.458 µM) | 0.23 (≈ 0.438 µM) | 0.20 (≈ 0.381 µM) | – | – |
| Cc1cc(C)cc(NC(=O)OCc2cc(N)cc(Nc3c4ccccc4nc4ccccc34)c2)c1 [Example 6, [3-(acridin-9-yl)amino-5-amino]benzyl N-(3,5-dimethylphenyl) carbamate] | 3 | 0.72 (≈ 1.56 µM) | 0.36 (≈ 0.778 µM) | 0.33 (≈ 0.713 µM) | 0.37 (≈ 0.8 µM) | 0.40 (≈ 0.865 µM) | 0.8 (≈ 1.73 µM) | – |
| Nc1cc(COC(=O)Nc2cc(F)cc(F)c2)cc(Nc2c3ccccc3nc3ccccc23)c1 [Example 12, [3-(acridin-9-yl)amino-5-amino]benzyl N-(3,5-difluorophenyl) carbamate] | 0.5 | – | – | – | – | – | 1.2 (≈ 2.55 µM) | 150 |
| COc1cc(NC(=S)OCc2cc(N)cc(Nc3c4ccccc4nc4ccccc34)c2)cc(OC)c1OC [Example 19, [3-(acridin-9-yl)amino-5-amino]benzyl N-(3,4,5-trimethoxyphenyl)thiocarbamate] | 5 | – | – | – | – | – | – | – |
| COc1cccc(NC(=O)OCc2cccc(Nc3c4ccccc4nc4ccccc34)c2)c1 [Example 20, 3-(acridin-9-yl)aminobenzyl N-(3-methoxyphenyl) carbamate] | 3 | – | – | – | – | – | – | – |
| COc1cc(NC(=O)OCc2cccc(Nc3c4ccccc4nc4ccccc34)c2)cc(OC)c1 [Example 21, 3-(acridin-9-yl)aminobenzyl N-(3,5-dimethoxyphenyl) carbamate] | 3 | – | – | – | – | – | – | – |
| COc1cc(NC(=O)OCc2cccc(Nc3c4ccccc4nc4ccccc34)c2)cc(OC)c1OC [Example 22, 3-(acridin-9-yl)aminobenzyl N-(3,4,5-trimethoxyphenyl) carbamate] | 5 | – | – | – | – | – | – | – |

Continued, in another order:

| IC50 (μg/ml), inhibition of Topoisomerase II activity [7] [µg/mL] | SMILES | ED50 A 549 [1] [µg/mL] | ED50 SK-OV-3 [2] [µg/mL] | ED50 HCT 15 [3] [µg/mL] | ED50 XF-498 [4] [µg/mL] | ED50 SK-MEL-2 [5] [µg/mL] | IC50 [6] [µg/mL] | LD50 at 14 days [8] [mg/kg] |
| --- | --- | --- | --- | --- | --- | --- | --- | --- |
| 3 | COc1cccc(NC(=O)OCc2cc(N)cc(Nc3c4ccccc4nc4ccccc34)c2)c1 [Example 2, [3-(acridin-9-yl)amino-5-amino]benzyl N-(3-methoxyphenyl)carbamate] | – | 0.68 (≈ 1.46 µM) | 0.97 (≈ 2.09 µM) | 0.71 (≈ 1.53 µM) | – | – | – |
| 3 | COc1cc(NC(=O)OCc2cc(N)cc(Nc3c4ccccc4nc4ccccc34)c2)cc(OC)c1 [Example 3, [3-(acridin-9-yl)amino-5-amino]benzyl N-(3,5-dimethoxyphenyl)carbamate] | – | – | – | – | – | – | – |
| 1 | Nc1cc(COC(=O)Nc2cccc(Cl)c2)cc(Nc2c3ccccc3nc3ccccc23)c1 [Example 14, [3-(acridin-9-yl)amino-5-amino]benzyl N-(3-chlorophenyl) carbamate] | – | – | – | – | – | – | – |
| 3 | COc1cc(NC(=S)OCc2cc(N)cc(Nc3c4ccccc4nc4ccccc34)c2)cc(OC)c1 [Example 18, [3-(acridin-9-yl)amino-5-amino]benzyl N-(3,5-dimethoxyphenyl)thiocarbamate] | – | – | – | – | – | – | – |
| 5 | CC=Nc1cc(CO)cc(Nc2c3ccccc3nc3ccccc23)c1 [Example 35, 3-(acridin-9-yl)amino-5-(ethylideneamino)phenylmethanol] | – | – | – | – | – | – | – |
| 3 | CCC=Nc1cc(CO)cc(Nc2c3ccccc3nc3ccccc23)c1 [Example 36, 3-(acridin-9-yl)amino-5-(propylideneamino)phenylmethanol] | – | – | – | – | – | – | – |
| 5 | CCCC=Nc1cc(CO)cc(Nc2c3ccccc3nc3ccccc23)c1 [Example 37, 3-(acridin-9-yl)amino-5-(butylideneamino)phenylmethanol] | 0.90 (≈ 2.44 µM) | 0.93 (≈ 2.52 µM) | 0.35 (≈ 0.947 µM) | 0.36 (≈ 0.974 µM) | 0.89 (≈ 2.41 µM) | – | – |
| 0.5 | C[C@H](N)C(=O)Nc1cc(CO)cc(Nc2c3ccccc3nc3ccccc23)c1 [Example 45, N-[3-(acridin-9-yl)amino-5-(hydroxymethyl)phenyl](2S)-2-aminopropaneamide] | 0.01 (≈ 0.0259 µM) | 0.21 (≈ 0.543 µM) | 0.86 (≈ 2.23 µM) | 0.88 (≈ 2.28 µM) | 0.25 (≈ 0.647 µM) | – | – |
| 3 | N[C@@H](Cc1ccccc1)C(=O)Nc1cc(CO)cc(Nc2c3ccccc3nc3ccccc23)c1 [Example 46, N-[3-(acridin-9-yl)amino-5-(hydroxymethyl)phenyl](2S)-2-amino-3-phenylpropaneamide] | – | – | – | – | – | – | – |
